Reference: article PMC9499525, “Tissue-restricted inhibition of mTOR using chemical genetics” (Proceedings of the National Academy of Sciences of the …, 2022)
Like-named read-outs stand apart in the source and are kept apart here.

Tests used:
[1] = tested on: mTOR signaling in Flp-In T-REx 293 cells; experiment: mTOR signaling by Western blot in parental (wild-type) Flp-In 293 cells; assay type: cell-based, human; conditions: for IC50: Homo sapiens, 24 h treatment, wild-type 293 cells
Procedure: (§1) All cell lines were maintained in DMEM (Gibco) supplemented with 10% heat-inactivated FBS (Axenia Biologix) at 37 °C in 5% CO2. Flp-In T-REx 293 cells were obtained from Thermo Fisher supplemented with 15 µg/mL blasticin and 100 µg/mL Zeocin. Flp-In T-REx 293 FKBP12 V55G cells were supplemented with 15 µg/mL blasticin and 150 µg/mL hygromycin B. FKBP12 V55G expression was induced with 1 µg/mL doxycycline 24 h prior to drug treatments. MCF7 cells were obtained from ATCC (American Type Culture Collection), and MCF7 mTOR F2108L cells were described previously ([30]). When indicated, cells were treated with drugs at 60–80% confluency at a final DMSO concentration of 0.1%. At the end of the treatment period, cells were placed on ice and washed once with PBS. Cells were scraped with a spatula and lysed in radioimmunoprecipitation assay (RIPA) buffer supplemented with protease and phosphatase inhibitors (cOmplete and phosSTOP, Roche) on ice for 5 min. Lysates were clarified by high-speed centrifugation. Lysate concentration was determined by Bradford assay (Thermo Fisher) and adjusted to 2 mg/mL with additional RIPA buffer. Samples were mixed with 5x SDS loading dye and heated at 95 °C for 5 min.
SDS-PAGE was run with Novex 4–12% Bis-Tris gel (Invitrogen) in MOPS running buffer at 200V for 40 min. Samples were loaded at 20 µg lysate per lane. […] Following three 5 min. washes with TBST, membranes were imaged on a Li-COR Odyssey fluorescence imager. […] Blot quantification was performed in Fiji, and data were graphed and fit in Prism 9 (GraphPad). […] For detection of phosphorylated and total protein, primary antibodies for phospho-Akt/Akt, phospho-S6K/S6K, or phospho-S6/S6 were combined and detected using a mixture of species-specific secondary antibodies with orthogonal fluorescence to allow simultaneous detection of phosphorylated and total protein from a single membrane, or membrane was stripped (Cell Signaling Technology) after detection of phosphorylated protein and then reblocked and reprobed with primary antibody for total protein.

[2] = tested on: MCF7 cells (with/without FKBP12 V55G-HA; mTOR F2108L); experiment: Cell growth by CellTiter-Glo in MCF7 cells; assay type: cell-based, human; conditions: 72 h treatment
Procedure: as §1, with “Cells were scraped with a spatula and lysed in radioimmunoprecipitation assay (RIPA) buffer supplemented with protease and phosphatase inhibitors (cOmplete and phosSTOP, Roche) on ice for 5 min. Lysates were clarified by high-speed centrifugation.” left out, “Samples were mixed with 5x SDS loading dye and heated at 95 °C for 5 min.” left out
Cells were seeded into 96-well tissue-culture treated plates (Greiner) and were allowed to incubate for 24 h. […] Cell viability was assessed by CellTiter-Glo (Promega). […] Luminescence was measured on a Tecan Spark 20M. […]
Human FKBP12 coding sequence was cloned a pET-47b bacterial expression vector using Gibson assembly and a C-terminal HA-tag was added by QuickChange PCR. FKBP12 proteins were expressed as 8xHis fusions in E. coli BL21 (DE3) cells. […]

## CCO/N=C1/C[C@@H]([C@H](C)C[C@@H]2CC[C@@H](O)[C@H](OC)C2)OC(=O)[C@@H]2CCCCN2C(=O)C(=O)[C@]2(O)O[C@@H](CC[C@H]2C)C[C@H](OC)/C(C)=C/C=C/C=C/[C@@H](C)C[C@@H](C)C(=O)[C@H](OC)[C@H](O)/C(C)=C/[C@H]1C [Rapa*-3Z]
[1]; 10 nM, time course
  mTOR signaling in wild-type 293 cells: unaffected
[1]; read-out: IC50 phospho-S6
  IC50: 121 nM
[1]; read-out: IC50 phospho-S6K
  IC50: 76 nM
[2]; CellTiter-Glo
  Cell growth inhibition, MCF7 cells with and without FKBP12 V55G: activity was restricted to the mutant FKBP12-expressing cells
[2]; rapamycin resistance mutation
  Cell growth, MCF7 mTOR F2108L cells: had no effect on the growth of these cells
